Source: US11932624B2, “MDM2 degraders and uses thereof” (Kymera Therapeutics, Inc., priority 2020, dated 2024)

Tested on: RS411 cells
Assay: Cell Viability CTG Assay (CellTiter Glo) in RS411 cells
Assay type: cell-based
Details: Homo sapiens, RS4-11, 24 h, duration 1 day
Experimental: Example 23. Cell Viability CTG Assay
Day 0: Compounds or DMSO 60 nL were stamped to the cell plate as the platemap. RS411 cells were centrifuged at 800 rpm for 5 min, suspended with culture medium, and counted with Countess (Invitrogen). The cell density was adjusted to the recommend information. 30 μL of cell solution (1000 cells/well) was added to the assay plate as the platemap and 30 uL of media was added to column 2 and column 23 as the platemap. The plate was spun down briefly. The final concentration of the compounds started at 10 μM (3 fold dilution and 11 doses) and final DMSO concentration was 0.2%. The plate was spun down briefly and incubated at 37° C., 5% CO2 for 1-4 days.
30 μL CellTiter Glo reagent was added to each well and the plate was centrifuged at 1000 rpm for 30 sec. The plate was shaken for 1 min and centrifuged at 1000 rpm for 30 sec. The plate was incubated at RT for 10 min to stabilize the luminescent signal and the luminescence was read by EnVision.
The letter codes for IC50 indicate the concentration of compound required to affect 50% of cells: A (<0.05 μM), B (0.05-0.1 μM), C (0.1-0.5 μM), D (0.5-1.0 μM), and E (>1.0 μM).

SMILES | IC50
Cn1c(=O)n(C2CCC(=O)NC2=O)c2ccc(C#CC3CCN(C(=O)[C@H]4CC[C@H](NC(=O)[C@@H]5NC6(CCC(C)(C)CC6)[C@@]6(C(=O)Nc7cc(Cl)ccc76)[C@H]5c5cccc(Cl)c5F)CO4)CC3)cc21 (stereo partly shown) [I-83] | < 50 nM
COc1cc2c(cc1OC(C)C)C(c1ccc(Cl)cc1)N(c1ccc(N(C)CC3CCN(CCCCCCc4cccc5c4n(C)c(=O)n5C4CCC(=O)NC4=O)CC3)cc1)C(=O)C2 (stereo not shown) [I-84, 3-[4-[6-[4-[[4-[1-(4-Chlorophenyl)-7-isopropoxy-6-methoxy-3-oxo-1,4-dihydroisoquinolin-2-yl]-N-methylanilino]methyl]-1-piperidyl]hexyl]-3-methyl-2-oxo-benzimidazol-1-yl]piperidine-2,6-dione] | < 50 nM
COc1cc2c(cc1OC(C)C)C(c1ccc(Cl)cc1)N(c1ccc(N(C)C[C@H]3CC[C@H](N(C)CCCCCc4ccc5c(c4)n(C)c(=O)n5C4CCC(=O)NC4=O)CC3)cc1)C(=O)C2 (stereo partly shown) [I-85] | < 50 nM
COc1cc2c(cc1OC(C)C)C(c1ccc(Cl)cc1)N(c1ccc(N(C)CC3CCN(CCCCCCc4ccc5c(c4)n(C)c(=O)n5C4CCC(=O)NC4=O)CC3)cc1)C(=O)C2 (stereo not shown) [I-86] | < 50 nM
COc1cc2c(cc1OC(C)C)C(c1ccc(Cl)cc1)N(c1ccc(N(C)C[C@H]3CC[C@H](N(C)CCCCCc4cccc5c4n(C)c(=O)n5C4CCC(=O)NC4=O)CC3)cc1)C(=O)C2 (stereo partly shown) [I-87] | < 50 nM
Cn1c(=O)n(C2CCC(=O)NC2=O)c2ccc(C#CC3CN(C(=O)[C@H]4C[C@H](NC(=O)[C@@H]5NC6(CCCCC6)[C@@]6(C(=O)Nc7cc(Cl)ccc76)[C@H]5c5cccc(Cl)c5F)C4)C3)cc21 (stereo partly drawn) [I-89, (3′R,4'S,5′R)-6″-chloro-4′-(3-chloro-2-fluorophenyl)-N-((1r,3R)-3-(3-((1-(2,6-dioxopiperidin-3-yl)-3-methyl-2-oxo-2,3-dihydro-1H-benzo[d]imidazol-5-yl)ethynyl)azetidine-1-carbonyl)cyclobutyl)-2″-oxodispiro[cyclohexane-1,2′-pyrrolidine-3′,3″-indoline]-5′-carboxamide] | < 50 nM
CCCCCC1N(c2ccc(C(=O)O)cc2OC)C(=O)[C@H]2[C@H](c3cccc(Cl)c3F)[C@@](C#N)(c3ccc(Cl)cc3F)[C@H](CC(C)(C)C)N12 (stereo partly drawn) [I-91, 4-[(5S,6R,7S,7aR)-7-(3-chloro-2-fluoro-phenyl)-6-(4-chloro-2-fluoro-phenyl)-6-cyano-5-(2,2-dimethylpropyl)-1-oxo-3-pentyl-3,5,7,7a-tetrahydropyrrolo[1,2-c]imidazol-2-yl]-3-methoxy-benzoic acid] | > 1000 nM
COc1cc2c(cc1OC(C)C)C(c1ccc(Cl)cc1)N(c1ccc(N(C)C[C@H]3CC[C@H](NCC(=O)NCCCCCc4ccc5c(c4)n(C)c(=O)n5C4CCC(=O)NC4=O)CC3)cc1)C(=O)C2 (stereo partly shown) [I-92, 2-[[4-[[4-[1-(4-Chlorophenyl)-7-isopropoxy-6-methoxy-3-oxo-1,4-dihydroisoquinolin-2-yl]-N-methyl-anilino]methyl]cyclohexyl]amino]-N-[5-[1-(2,6-dioxo-3-piperidyl)-3-methyl-2-oxo-benzimidazol-5-yl]pentyl]acetamide] | < 50 nM
CN(CCCCCc1ccc2c(c1)n(C)c(=O)n2C1CCC(=O)NC1=O)C[C@H]1CC[C@H](NC(=O)[C@@H]2NC3(CCCCC3)[C@@]3(C(=O)Nc4cc(Cl)ccc43)[C@H]2c2cccc(Cl)c2F)CC1 (stereo partly shown) [I-93] | < 50 nM
Cn1c(=O)n(C2CCC(=O)NC2=O)c2ccc(C(=O)CC3CCN(C(=O)[C@H]4CC[C@H](NC(=O)[C@@H]5NC6(CCCCC6)[C@@]6(C(=O)Nc7cc(Cl)ccc76)[C@H]5c5cccc(Cl)c5F)CC4)CC3)cc21 (stereo partly shown) [I-94] | < 50 nM
CN(C(=O)[C@@H]1NC2(CCCCC2)[C@@]2(C(=O)Nc3cc(Cl)ccc32)[C@H]1c1cccc(Cl)c1F)c1ccc(C(=O)NCCCCCc2ccc3c(c2)n(C)c(=O)n3C2CCC(=O)NC2=O)cc1 (stereo partly shown) [I-96] | > 1000 nM
Cn1c(=O)n(C2CCC(=O)NC2=O)c2ccc(CCCCCNC(=O)c3ccc(NC(=O)[C@@H]4NC5(CCCCC5)[C@@]5(C(=O)Nc6cc(Cl)ccc65)[C@H]4c4cccc(Cl)c4F)cc3)cc21 (stereo partly shown) [I-97] | < 50 nM
Cn1c(=O)n(C2CCC(=O)NC2=O)c2ccc(CCCCCNC(=O)[C@@H]3CC[C@@H](NC(=O)[C@@H]4NC5(CCC(C)(C)CC5)[C@@]5(C(=O)Nc6cc(Cl)ccc65)[C@H]4c4cccc(Cl)c4F)CO3)cc21 (stereo partly shown) [I-98] | < 50 nM
CN(CCCCCc1ccc2c(c1)n(C)c(=O)n2C1CCC(=O)NC1=O)Cc1ccc(NC(=O)[C@@H]2NC3(CCCCC3)[C@@]3(C(=O)Nc4cc(Cl)ccc43)[C@H]2c2cccc(Cl)c2F)cc1 (stereo partly shown) [I-99] | < 50 nM
Cn1c(=O)n(C2CCC(=O)NC2=O)c2ccc(C#CC3CN(C(=O)[C@H]4C[C@H](NC(=O)[C@@H]5NC6(CCC(C)(C)CC6)[C@@]6(C(=O)Nc7cc(Cl)ccc76)[C@H]5c5cccc(Cl)c5F)C4)C3)cc21 (stereo partly shown) [I-100] | < 50 nM
CN1[C@@H](C(=O)Nc2ccc(C(=O)NCCCCCc3ccc4c(c3)n(C)c(=O)n4C3CCC(=O)NC3=O)cc2)[C@H](c2cccc(Cl)c2F)[C@]2(C(=O)Nc3cc(Cl)ccc32)C12CCCCC2 (stereo partly shown) [I-101] | < 50 nM
Cn1c(=O)n(C2CCC(=O)NC2=O)c2ccc(CCC3CCN(Cc4ccc(NC(=O)[C@@H]5NC6(CCCCC6)[C@@]6(C(=O)Nc7cc(Cl)ccc76)[C@H]5c5cccc(Cl)c5F)cc4)CC3)cc21 (stereo partly shown) [I-102] | < 50 nM

SMILES | IC50
Cn1c(=O)n(C2CCC(=O)NC2=O)c2cccc(C3CCN(C[C@H]4CC[C@H](NC(=O)[C@@H]5NC6(CCC(C)(C)CC6)[C@@]6(C(=O)Nc7cc(Cl)ccc76)[C@H]5c5cccc(Cl)c5F)CC4)CC3)c21 (stereo partly shown) [I-103] | < 50 nM
Cn1c(=O)n(C2CCC(=O)NC2=O)c2ccc(CCCCCNC(=O)[C@H]3CC[C@H](N(C)C(=O)[C@@H]4NC5(CCCCC5)[C@@]5(C(=O)Nc6cc(Cl)ccc65)[C@H]4c4cccc(Cl)c4F)CC3)cc21 (stereo partly shown) [I-105] | > 1000 nM
O=C1CCN(c2cnc3cc(C#CCOC4CCN(C(=O)c5ccc(NC(=O)[C@@H]6NC7(CCCCC7)[C@@]7(C(=O)Nc8cc(Cl)ccc87)[C@H]6c6cccc(Cl)c6F)cc5)CC4)ccn23)C(=O)N1 [I-106] | < 50 nM
Cn1c(=O)n(C2CCC(=O)NC2=O)c2cccc(C3CCN(C[C@H]4CC[C@H](NC(=O)[C@@H]5NC6(CCCCC6)[C@@]6(C(=O)Nc7cc(Cl)ccc76)[C@H]5c5cccc(Cl)c5F)CC4)CC3)c21 (stereo partly shown) [I-109] | < 50 nM
Cn1c(=O)n(C2CCC(=O)NC2=O)c2ccc(C#CCN3CCN(Cc4ccc(NC(=O)[C@@H]5NC6(CCCCC6)[C@@]6(C(=O)Nc7cc(Cl)ccc76)[C@H]5c5cccc(Cl)c5F)cc4)CC3)cc21 (stereo partly shown) [I-110] | < 50 nM
Cn1c(=O)n(C2CCC(=O)NC2=O)c2cccc(CN3CCC(OC4CCN(C[C@H]5CC[C@H](NC(=O)[C@@H]6NC7(CCC(C)(C)CC7)[C@@]7(C(=O)Nc8cc(Cl)ccc87)[C@H]6c6cccc(Cl)c6F)CC5)CC4)CC3)c21 (stereo partly shown) [I-111] | < 50 nM
Cn1c(=O)n(C2CCC(=O)NC2=O)c2cccc(CCC3CC4(CCN(C[C@H]5CC[C@H](NC(=O)[C@@H]6NC7(CCCCC7)[C@@]7(C(=O)Nc8cc(Cl)ccc87)[C@H]6c6cccc(Cl)c6F)CC5)CC4)C3)c21 (stereo partly shown) [I-112] | < 50 nM
Cn1c(=O)n(C2CCC(=O)NC2=O)c2cccc(CN3CCC(OC4CCN(C[C@H]5CC[C@H](NC(=O)[C@@H]6NC7(CCCCC7)[C@@]7(C(=O)Nc8cc(Cl)ccc87)[C@H]6c6cccc(Cl)c6F)CC5)CC4)CC3)c21 (stereo partly shown) [I-113] | < 50 nM
Cn1c(=O)n(C2CCC(=O)NC2=O)c2ccc(CCCN3CCN(C[C@H]4CC[C@H](NC(=O)[C@@H]5NC6(CCCCC6)[C@@]6(C(=O)Nc7cc(Cl)ccc76)[C@H]5c5cccc(Cl)c5F)CC4)CC3)cc21 (stereo partly shown) [I-114] | < 50 nM
Cn1c(=O)n(C2CCC(=O)NC2=O)c2cccc(C3CCN(Cc4ccc(NC(=O)[C@@H]5NC6(CCCCC6)[C@@]6(C(=O)Nc7cc(Cl)ccc76)[C@H]5c5cccc(Cl)c5F)cc4)CC3)c21 (stereo partly shown) [I-115] | < 50 nM
Cn1c(=O)n(C2CCC(=O)NC2=O)c2cccc(C#CC3CCN(Cc4ccc(CNC(=O)[C@@H]5NC6(CCCCC6)[C@@]6(C(=O)Nc7cc(Cl)ccc76)[C@H]5c5cccc(Cl)c5F)cc4)CC3)c21 (stereo partly shown) [I-116] | > 1000 nM
Cn1c(=O)n(C2CCC(=O)NC2=O)c2ccc(CN3CCC(OC4CCN(C[C@H]5CC[C@H](NC(=O)[C@@H]6NC7(CCCCC7)[C@@]7(C(=O)Nc8cc(Cl)ccc87)[C@H]6c6cccc(Cl)c6F)CC5)CC4)CC3)cc21 (stereo partly shown) [I-117] | < 50 nM
Cn1c(=O)n(C2CCC(=O)NC2=O)c2cccc(/C=C/C3CCN(C[C@H]4CC[C@H](CNC(=O)[C@@H]5NC6(CCCCC6)[C@@]6(C(=O)Nc7cc(Cl)ccc76)[C@H]5c5cccc(Cl)c5F)CC4)CC3)c21 (stereo partly shown) [I-118] | 50 to 100 nM
O=C1CCN(c2cnc3cc(C#CC4CCN(C[C@H]5CC[C@H](NC(=O)[C@@H]6NC7(CCCCC7)[C@@]7(C(=O)Nc8cc(Cl)ccc87)[C@H]6c6cccc(Cl)c6F)CC5)CC4)ccn23)C(=O)N1 [I-119] | < 50 nM
Cn1c(=O)n(C2CCC(=O)NC2=O)c2ccc(C#CCCCNC(=O)[C@H]3CC[C@H](N(C)C(=O)[C@@H]4NC5(CCCCC5)[C@@]5(C(=O)Nc6cc(Cl)ccc65)[C@H]4c4cccc(Cl)c4F)CC3)cc21 (stereo partly shown) [I-120] | > 1000 nM
Cn1c(=O)n(C2CCC(=O)NC2=O)c2ccc(CCCN3CCN(Cc4ccc(NC(=O)[C@@H]5NC6(CCCCC6)[C@@]6(C(=O)Nc7cc(Cl)ccc76)[C@H]5c5cccc(Cl)c5F)cc4)CC3)cc21 (stereo partly shown) [I-121] | < 50 nM
Cn1c(=O)n(C2CCC(=O)NC2=O)c2ccc(C#CC3CN(C[C@H]4C[C@H](NC(=O)[C@@H]5NC6(CCC(C)(C)CC6)[C@@]6(C(=O)Nc7cc(Cl)ccc76)[C@H]5c5cccc(Cl)c5F)C4)C3)cc21 (stereo partly shown) [I-122] | < 50 nM
